{
  "source": "patent US12421249B2",
  "about": "“Inhibitors of APOL1 and methods of using same” (Vertex Pharmaceuticals Incorporated, priority 2020, dated 2025)",
  "target": "T1, APOL1 G1 (Homo sapiens, UniProt O14791, I384M/S342G)",
  "T1 sequence (O14791 28-398 S342G/I384M)": "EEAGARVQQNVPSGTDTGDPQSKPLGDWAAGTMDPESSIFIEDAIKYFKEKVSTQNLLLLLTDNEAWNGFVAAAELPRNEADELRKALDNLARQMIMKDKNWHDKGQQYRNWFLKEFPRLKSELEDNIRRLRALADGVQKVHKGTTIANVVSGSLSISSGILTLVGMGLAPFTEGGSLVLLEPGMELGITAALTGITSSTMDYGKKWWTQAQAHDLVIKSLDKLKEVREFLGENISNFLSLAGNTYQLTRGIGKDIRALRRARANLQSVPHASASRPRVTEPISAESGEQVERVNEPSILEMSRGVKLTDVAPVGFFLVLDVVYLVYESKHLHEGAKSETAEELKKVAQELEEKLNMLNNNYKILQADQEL",
  "assay": "Trypanosoma brucei brucei Lysis Assay Using APOL1 Recombinant Protein (AlamarBlue viability readout)",
  "assay_type": "cell-based",
  "conditions": "Trypanosome Assay",
  "how_it_was_run": "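Percent viability comes from AlamarBlue (resazurin→resorufin) fluorescence interpolated on a standard curve of known parasite numbers, with no-APOL1 wells as 100%. Parasites (Lister 427 bloodstream form, 120,000/well, serum-free assay medium) meet 0.05 μg/mL APOL1 (~EC90). Compounds span a 10-point series, 0.1% DMSO final.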",
  "note": "pIC50: −log10 of the molar value.",
  "data": [
    {"smiles": "[2H]C1([2H])O[C@@]2(C[C@@H](c3cn(C)nn3)N[C@@H](C)C2)c2sc(Cl)cc2[C@]1([2H])O", "note": "[Compound 385, (2S,4S,4′S,6S)-2′-chloro-4′,5′,5′-trideuterio-2-methyl-6-(1-methyltriazol-4-yl)spiro[piperidine-4,7′-thieno[2,3-c]pyran]-4′-ol]", "values": [
      {"measurement": "pIC50", "setting": "IP50 = IC50 for cell proliferation, read-out: Trypanosome Assay IP50", "result": "> 7.30"},
      {"measurement": "Emax", "setting": "read-out: Trypanosome Assay Max Activity (%)", "result": 104, "unit": "%"}
    ]}
  ]
}
